Groups on a side chain read outwards from the residue. No end group written: not given here.
T1: insulin-degrading enzyme (IDE) (Homo sapiens, UniProt P14735)
T1 construct: purchased R&D Systems
T1 sequence (P14735 1-1019): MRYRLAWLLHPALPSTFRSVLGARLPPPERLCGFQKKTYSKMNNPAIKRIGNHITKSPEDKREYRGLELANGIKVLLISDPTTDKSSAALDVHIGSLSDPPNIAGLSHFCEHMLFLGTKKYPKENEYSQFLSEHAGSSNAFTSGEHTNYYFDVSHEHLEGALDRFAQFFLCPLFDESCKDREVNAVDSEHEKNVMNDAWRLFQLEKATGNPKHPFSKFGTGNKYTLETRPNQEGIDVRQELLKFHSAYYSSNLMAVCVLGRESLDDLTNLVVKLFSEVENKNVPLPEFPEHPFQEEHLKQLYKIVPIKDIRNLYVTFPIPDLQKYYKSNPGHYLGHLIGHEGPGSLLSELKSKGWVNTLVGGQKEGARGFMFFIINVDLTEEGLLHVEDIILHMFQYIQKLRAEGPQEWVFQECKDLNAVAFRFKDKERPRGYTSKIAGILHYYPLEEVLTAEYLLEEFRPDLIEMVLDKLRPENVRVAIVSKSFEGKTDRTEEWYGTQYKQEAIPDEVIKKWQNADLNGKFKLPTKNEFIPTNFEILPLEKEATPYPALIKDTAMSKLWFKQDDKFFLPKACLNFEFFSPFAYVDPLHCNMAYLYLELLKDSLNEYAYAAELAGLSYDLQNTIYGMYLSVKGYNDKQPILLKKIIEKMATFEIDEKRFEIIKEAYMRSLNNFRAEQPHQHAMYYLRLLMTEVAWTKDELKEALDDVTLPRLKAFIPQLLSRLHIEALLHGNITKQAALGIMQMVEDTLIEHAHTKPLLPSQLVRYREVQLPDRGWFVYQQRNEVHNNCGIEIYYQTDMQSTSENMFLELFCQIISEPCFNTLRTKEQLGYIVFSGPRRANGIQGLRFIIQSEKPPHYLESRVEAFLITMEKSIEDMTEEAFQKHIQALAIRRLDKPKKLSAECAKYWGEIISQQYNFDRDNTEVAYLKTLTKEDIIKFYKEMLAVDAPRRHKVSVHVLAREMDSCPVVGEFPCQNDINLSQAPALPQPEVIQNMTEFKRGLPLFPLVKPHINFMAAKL

T2: VIP/PACAP receptor VPAC1 (UniProt P32241 31-457)
T2 sequence (looked up): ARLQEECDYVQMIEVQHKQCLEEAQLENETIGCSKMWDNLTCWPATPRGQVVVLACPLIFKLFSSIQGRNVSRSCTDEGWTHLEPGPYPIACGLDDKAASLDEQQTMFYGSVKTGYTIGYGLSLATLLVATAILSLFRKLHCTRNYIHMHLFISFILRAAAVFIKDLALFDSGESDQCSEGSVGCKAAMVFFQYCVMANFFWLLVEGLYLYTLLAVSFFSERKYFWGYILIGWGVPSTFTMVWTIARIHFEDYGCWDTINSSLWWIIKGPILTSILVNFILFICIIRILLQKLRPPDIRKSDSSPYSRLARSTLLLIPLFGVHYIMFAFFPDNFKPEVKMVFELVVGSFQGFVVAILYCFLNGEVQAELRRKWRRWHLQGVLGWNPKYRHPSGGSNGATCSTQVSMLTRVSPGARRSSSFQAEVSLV

T3: VIP/PACAP receptor VPAC2 (UniProt P41587 24-438)
T3 sequence (looked up): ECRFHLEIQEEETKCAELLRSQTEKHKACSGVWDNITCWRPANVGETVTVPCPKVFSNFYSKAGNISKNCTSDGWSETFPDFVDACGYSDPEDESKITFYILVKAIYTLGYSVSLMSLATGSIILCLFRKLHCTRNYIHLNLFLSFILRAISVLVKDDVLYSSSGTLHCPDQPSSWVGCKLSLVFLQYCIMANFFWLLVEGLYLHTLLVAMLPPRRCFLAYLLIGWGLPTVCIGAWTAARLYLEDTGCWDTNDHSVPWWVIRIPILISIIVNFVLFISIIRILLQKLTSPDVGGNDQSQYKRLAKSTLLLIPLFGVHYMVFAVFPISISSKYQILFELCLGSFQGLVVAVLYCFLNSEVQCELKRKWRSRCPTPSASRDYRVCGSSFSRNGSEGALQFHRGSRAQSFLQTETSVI


Tests used:
[1] = biological target: T1, insulin-degrading enzyme (IDE); experiment: In vitro degradation by insulin-degrading enzyme, MALDI-TOF time course; assay type: in vitro ADME
Description: Reactions were performed in 50 mM Tris, 0.05% Brij-35, pH 9 (Neprilysin), or 50 mM Tris, 20 mM NaCl, pH 7.5 (IDE) and incubated at 37° C.

male Sprague Dawley rats = experiment: Acute cardiovascular and renal actions of i.v. infusion in anesthetized rats; assay type: in vivo; settings: rat
Text: The protocol is outlined in FIG. 9A.
Rats were then subjected to vessel and bladder cannulation for peptide infusion, BP measurement, blood sampling and urine collection. A polyethylene (PE)-5G tube catheter was placed into the jugular vein for inulin, peptide intravenous infusion. The carotid artery was cannulated with a PE-50 tube catheter for BP measurement (Sonometrics, London, Ontario, Canada) and blood sampling. The bladder was accessed and cannulated with a PE-50 tube catheter for passive urine collection. After completion of the above procedural set up, a 45 min equilibration period was performed that included continuous IV inulin and saline infusion. After the 45 min equilibration period, baseline (Time==Q min) parameters were recorded and one blood sampling (0.7 ml) was performed. The inulin and saline infusion was replaced by a continuous intravenously (i.v.) infusion of equimolar ANP-Ser19/ST or ANP-Ser25/ST for 60 min. The infusion rate was weight adjusted and equals weight*0.7/6000 ml/min. After 60 min infusion (Time=60 min), another blood sampling (0.7 ml) was conducted. […] Urine was collected at the end of the infusion (Time=60 min) and the study (Time=90 min). Urinary sodium was measured with pHOx Ultra (Nova Biomedical, Waltham, Mass.). Urine flow (UV) and urinary sodium excretion (UNaV) were calculated as urine volume or sodium clearance per min, Inulin concentrations were measured with enthrone method and inulin clearance was used for GFR quantification. Urinary cGMP and ANP excretion rate was calculated based on raw values obtained in the urine and UV.

VIP/PACAP receptor VPAC1 = biological target: T2, VIP/PACAP receptor VPAC1; experiment: cell-based or functional assay
VIP/PACAP receptor VPAC2 = biological target: T3, VIP/PACAP receptor VPAC2; experiment: cell-based or functional assay
[2] = 600 pmol/kg/min i.v., 60 minutes infusion

| Molecule | time to complete degradation by insulin-degrading enzyme [1] [min] | UV after a clearance period of 30 minutes (male Sprague Dawley rats) | change in mean arterial pressure (MAP) over the infusion period (male Sprague Dawley rats; [2]) | change in plasma cGMP over the infusion period (male Sprague Dawley rats; [2]) | MAP in the 30 minutes clearance period (male Sprague Dawley rats; after 60 min infusion) | potency, cAMP accumulation (HTRF) (VIP/PACAP receptor VPAC1) [nM] | potency, cAMP accumulation (HTRF) (VIP/PACAP receptor VPAC2) [nM] |
| --- | --- | --- | --- | --- | --- | --- | --- |
| CC[C@H](C)[C@@H]1NC(=O)[C@H](CCCNC(=N)N)NC(=O)[C@H](CC(=O)O)NC(=O)[C@H](CCSC)NC(=O)[C@H](CCCNC(=N)N)NC(=O)CNC(=O)CNC(=O)[C@H](Cc2ccccc2)NC(=O)[C@@H](NC(=O)[C@H](CO)NC(=O)[C@H](CO)NC(=O)[C@H](CCCNC(=N)N)NC(=O)[C@H](CCCNC(=N)N)NC(=O)[C@H](CC(C)C)NC(=O)[C@@H](N)CO)CSSC[C@@H](C(=O)N[C@@H](CC(N)=O)C(=O)N[C@@H](CO)C(=O)N[C@@H](Cc2ccccc2)C(=O)N[C@@H](CCCNC(=N)N)C(=O)N[C@@H](Cc2ccc(O)cc2)C(=O)O)NC(=O)CNC(=O)[C@H](CC(C)C)NC(=O)CNC(=O)[C@H](CO)NC(=O)[C@H](CCC(N)=O)NC(=O)[C@H](C)NC(=O)CNC1=O [ANP, Atrial natriuretic factor, reference compound] | ≤ 15 | normalized | decrease | increase | rebounded | – | – |
| HSDAVFT(GalNAc)DNYTRLRKQMAVKKYLNSILN [VIP with one O-glycan (GalNAc/Tn) at residue 7] | – | – | – | – | – | 102 | 242 |
| HSDAVFT([GalNAc-Gal-NeuAc])DNYTRLRKQMAVKKYLNSILN [VIP with ST O-glycan at Thr7] | – | – | – | – | – | 74 | 244 |

— patent US20210171598A1, “PEPTIDE HORMONE WITH ONE OR MORE O-GLYCANS” (priority 2017, published 2021)
